Activity calls are given as the source filed them. No cut-off for these calls is given here.
Legend:
[1] = biological target: T1, Indoleamine 2,3-dioxygenase 1 (Homo sapiens, UniProt P14902); assay: Inhibition of IDO1 in interferon-gamma-induced human SKOV3 cells assessed as N-formylkynurenine formation using L-tryptophan as substrate measured after 24 hrs by fluorescence assay
[2] = biological target: T1, Indoleamine 2,3-dioxygenase 1; assay: Inhibition of human N-terminal GST-tagged IDO1 expressed in Escherichia coli Rosetta(DE3) pLysS using L-tryptophan as substrate measured after 1 hr by fluorescence assay
UGT1A9 = biological target: T2, UGT1A9 (Homo sapiens, UniProt O60656); assay: Stability assessed as recombinant UGT1A9 (unknown origin) mediated compound glucuronidation by measuring half-life at 1 uM incubated in water bath by shaking at 37 degree C measured upto 60 mins in presence of UDPGA by LC-MS/MS analysis; format: ADME
T2 sequence (O60656 whole entry): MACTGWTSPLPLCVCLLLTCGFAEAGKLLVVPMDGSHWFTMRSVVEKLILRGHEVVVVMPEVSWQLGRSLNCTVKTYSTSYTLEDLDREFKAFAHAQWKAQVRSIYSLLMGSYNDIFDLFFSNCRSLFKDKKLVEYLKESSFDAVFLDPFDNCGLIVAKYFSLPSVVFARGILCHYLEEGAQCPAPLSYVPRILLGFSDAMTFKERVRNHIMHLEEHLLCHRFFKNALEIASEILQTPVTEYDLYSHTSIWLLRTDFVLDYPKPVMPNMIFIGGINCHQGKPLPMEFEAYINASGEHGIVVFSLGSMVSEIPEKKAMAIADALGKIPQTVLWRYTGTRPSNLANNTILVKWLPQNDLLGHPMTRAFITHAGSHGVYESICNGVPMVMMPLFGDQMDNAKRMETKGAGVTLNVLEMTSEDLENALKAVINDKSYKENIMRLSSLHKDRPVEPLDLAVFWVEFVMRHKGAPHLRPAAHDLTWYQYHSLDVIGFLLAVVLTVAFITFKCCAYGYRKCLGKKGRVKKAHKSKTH

[3] = Half life in mouse liver microsomes; format: ADME, Microsome
[4] = Half life in human liver microsomes; format: ADME, Microsome
[5] = Volume of distribution in rat at 1 mg/kg, iv administered as single dose by capillary micro-sampling analysis; format: ADME, organism-based; conditions: in vivo
[6] = AUC (0 to 24 hrs) in mouse at 10 mg/kg, po by capillary micro-sampling analysis; format: ADME, organism-based; set-up: dose 10 mg/kg, time < 24 hr, route oral; conditions: in vivo
CT26 [7] = assay: (§1) Synergistic antitumor activity against mouse CT26 cells implanted in immunocompetent BALB/c mouse assessed as survival at day 70 at 100 mg/kg, po administered twice daily over 15 days starting from day 10 post implantation in presence of CTLA-4 antibody at 100 ug, ip administered at day 3,6,9 measured thrice per week and monitored for 45 days; format: functional, organism-based
[8] = Cmax in humanized PXB-mouse assessed as ratio of glucuronide to parent compound at 10 mg/kg, po administered as single dose; format: ADME, organism-based; conditions: in vivo
[9] = Cmax in mouse at 10 mg/kg, po by capillary micro-sampling analysis; format: ADME, organism-based; set-up: dose 10 mg/kg, route oral; conditions: in vivo
CT26 [10] = assay: Antitumor activity against mouse CT26 cells implanted in immunocompetent BALB/c mouse assessed as reduction in tumour growth at 100 mg/kg, po administered twice daily over 15 days starting from day 10 post implantation measured thrice per week by digital caliper method; format: functional, organism-based
Cytochrome P450 3A4 = Cytochrome P450 3A4 (Homo sapiens, UniProt P08684); assay: Inhibition of CYP3A4 (unknown origin); format: ADME
Cytochrome P450 2D6 = Cytochrome P450 2D6 (Homo sapiens, UniProt P10635); assay: Inhibition of CYP2D6 (unknown origin); format: ADME
CT26 [11] = assay: as §1, with “reduction in tumour growth” for “survival at day 70”, “week by digital caliper method” for “week”; format: functional, organism-based
[12] = Protein binding in rat plasma; format: ADME, cell-free; conditions: read-out: PPB (converted)
[13] = AUC (0 to 24 hrs) in rat at 5 mg/kg, po administered as single dose by capillary micro-sampling analysis; format: ADME, organism-based; set-up: dose 5 mg/kg, time < 24 hr, route oral; conditions: in vivo
[14] = AUC in humanized PXB-mouse assessed as ratio of glucuronide to parent compound at 10 mg/kg, po administered as single dose; format: ADME, organism-based; conditions: in vivo
[15] = Half-life in rat at 1 mg/kg, iv administered as single dose by capillary micro-sampling analysis; format: ADME, organism-based; conditions: in vivo
Mus musculus = assay: In vivo inhibition of IDO1 in C57BL/6J mouse assessed as reduction in LPS-induced kynurenine level in plasma at 100 mg/kg, po administered via gavage measured after 24 hrs by LC-MS/MS analysis; format: functional, organism-based
[16] = Oral bioavailability in rat at 5 mg/kg administered as single dose by capillary micro-sampling analysis; format: ADME, organism-based; conditions: in vivo
[17] = Protein binding in mouse plasma; format: ADME, cell-free; conditions: read-out: PPB (converted)
[18] = Cmax in rat at 5 mg/kg, po administered as single dose by capillary micro-sampling analysis; format: ADME, organism-based; set-up: dose 5 mg/kg, route oral; conditions: in vivo
[19] = Protein binding in human plasma; format: ADME, cell-free; conditions: read-out: PPB (converted)
[20] = biological target: Tryptophan 2,3-dioxygenase (Homo sapiens, UniProt P48775); assay: Inhibition of TDO in human HEK cells; format: cell-based
[21] = Half life in mouse at 10 mg/kg, po by capillary micro-sampling analysis; format: ADME, organism-based; conditions: in vivo
Cytochrome P450 2C9 = Cytochrome P450 2C9 (Homo sapiens, UniProt P11712); assay: Inhibition of CYP2C9 (unknown origin); format: ADME
[22] = biological target: T1, Indoleamine 2,3-dioxygenase 1; assay: Inhibition IDO1 in LPS/IFN-gamma stimulated human whole blood assessed as reduction in tryptophan/kynurenine level preincubated for 15 mins followed by LPS/IFN-gamma stimulation measured after 20 hrs by LC-MS/MS analysis; format: tissue-based
Cytochrome P450 2C19 = Cytochrome P450 2C19 (Homo sapiens, UniProt P33261); assay: Inhibition of CYP2C19 (unknown origin); format: ADME
[23] = Half life in rat liver microsomes; format: ADME, Microsome
[24] = Clearance in rat at 1 mg/kg, iv administered as single dose by capillary micro-sampling analysis; format: ADME, organism-based; conditions: in vivo
[25] = AUC(0 to 12 hrs) at steady state in human assessed as ratio of glucuronide to compound at 50 mg, bid measured after 10 days; format: ADME; conditions: in vivo

T1 sequence (P14902 whole entry): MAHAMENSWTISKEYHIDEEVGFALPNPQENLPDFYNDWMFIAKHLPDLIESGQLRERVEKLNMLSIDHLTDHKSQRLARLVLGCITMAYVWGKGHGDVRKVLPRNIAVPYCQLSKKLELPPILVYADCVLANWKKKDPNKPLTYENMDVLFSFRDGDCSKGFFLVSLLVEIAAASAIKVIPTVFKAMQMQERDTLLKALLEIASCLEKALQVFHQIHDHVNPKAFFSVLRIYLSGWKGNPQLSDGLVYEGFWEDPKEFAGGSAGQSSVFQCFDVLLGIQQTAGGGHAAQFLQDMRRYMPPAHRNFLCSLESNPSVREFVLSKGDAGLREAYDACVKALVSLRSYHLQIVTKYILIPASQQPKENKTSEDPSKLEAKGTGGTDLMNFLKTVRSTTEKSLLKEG
Chain of Cytochrome P450 2C19 (P33261 whole entry): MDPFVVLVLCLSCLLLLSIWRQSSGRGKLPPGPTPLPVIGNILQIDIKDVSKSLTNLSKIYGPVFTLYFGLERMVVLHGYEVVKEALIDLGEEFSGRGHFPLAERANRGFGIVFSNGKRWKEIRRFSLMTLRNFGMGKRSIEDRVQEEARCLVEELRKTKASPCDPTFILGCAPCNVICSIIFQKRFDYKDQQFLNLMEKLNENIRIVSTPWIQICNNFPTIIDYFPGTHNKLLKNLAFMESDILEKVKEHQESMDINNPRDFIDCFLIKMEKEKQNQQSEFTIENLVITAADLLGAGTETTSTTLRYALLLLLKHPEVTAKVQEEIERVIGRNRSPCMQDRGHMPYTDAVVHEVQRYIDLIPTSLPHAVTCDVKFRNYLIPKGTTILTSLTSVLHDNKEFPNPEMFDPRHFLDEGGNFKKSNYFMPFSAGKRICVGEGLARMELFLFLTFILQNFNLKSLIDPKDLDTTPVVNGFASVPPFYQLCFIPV
Chain of Cytochrome P450 2D6 (P10635 whole entry): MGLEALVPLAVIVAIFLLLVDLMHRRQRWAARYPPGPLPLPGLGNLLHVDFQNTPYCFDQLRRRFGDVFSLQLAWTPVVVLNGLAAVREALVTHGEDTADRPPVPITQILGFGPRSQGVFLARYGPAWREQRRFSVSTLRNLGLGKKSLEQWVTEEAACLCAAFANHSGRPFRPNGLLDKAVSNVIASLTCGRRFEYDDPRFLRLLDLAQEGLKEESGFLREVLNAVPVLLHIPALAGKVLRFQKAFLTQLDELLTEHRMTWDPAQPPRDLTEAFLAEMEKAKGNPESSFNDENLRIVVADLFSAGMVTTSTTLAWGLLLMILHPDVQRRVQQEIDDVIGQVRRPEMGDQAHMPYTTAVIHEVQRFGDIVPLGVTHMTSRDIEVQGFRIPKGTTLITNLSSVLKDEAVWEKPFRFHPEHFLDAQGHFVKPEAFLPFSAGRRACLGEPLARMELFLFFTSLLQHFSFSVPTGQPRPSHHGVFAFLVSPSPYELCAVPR
Chain of Tryptophan 2,3-dioxygenase (P48775 whole entry): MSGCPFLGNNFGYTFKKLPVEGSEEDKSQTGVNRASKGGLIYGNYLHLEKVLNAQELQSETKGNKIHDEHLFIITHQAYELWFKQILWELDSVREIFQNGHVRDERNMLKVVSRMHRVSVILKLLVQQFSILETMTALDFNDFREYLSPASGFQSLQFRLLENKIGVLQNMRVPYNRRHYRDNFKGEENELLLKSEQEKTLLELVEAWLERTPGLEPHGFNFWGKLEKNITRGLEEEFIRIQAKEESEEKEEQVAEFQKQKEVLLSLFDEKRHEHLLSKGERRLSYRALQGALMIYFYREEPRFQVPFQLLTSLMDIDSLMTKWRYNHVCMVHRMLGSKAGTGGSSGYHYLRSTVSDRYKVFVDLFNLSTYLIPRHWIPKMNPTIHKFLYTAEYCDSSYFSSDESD
Chain of Cytochrome P450 3A4 (P08684 whole entry): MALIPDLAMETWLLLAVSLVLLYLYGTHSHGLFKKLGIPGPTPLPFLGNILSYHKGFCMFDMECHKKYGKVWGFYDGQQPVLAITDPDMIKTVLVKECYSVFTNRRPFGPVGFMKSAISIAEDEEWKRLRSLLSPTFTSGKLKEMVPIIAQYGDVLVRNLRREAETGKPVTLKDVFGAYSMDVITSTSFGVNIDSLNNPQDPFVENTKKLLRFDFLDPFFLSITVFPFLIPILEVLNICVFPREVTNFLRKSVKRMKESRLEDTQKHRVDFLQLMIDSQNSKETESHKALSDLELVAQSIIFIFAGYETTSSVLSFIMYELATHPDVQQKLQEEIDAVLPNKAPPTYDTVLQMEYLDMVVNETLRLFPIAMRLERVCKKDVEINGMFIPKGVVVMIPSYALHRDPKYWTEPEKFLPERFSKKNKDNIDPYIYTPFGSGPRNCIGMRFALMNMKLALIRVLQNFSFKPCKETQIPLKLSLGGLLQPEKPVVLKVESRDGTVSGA
Chain of Cytochrome P450 2C9 (P11712 whole entry): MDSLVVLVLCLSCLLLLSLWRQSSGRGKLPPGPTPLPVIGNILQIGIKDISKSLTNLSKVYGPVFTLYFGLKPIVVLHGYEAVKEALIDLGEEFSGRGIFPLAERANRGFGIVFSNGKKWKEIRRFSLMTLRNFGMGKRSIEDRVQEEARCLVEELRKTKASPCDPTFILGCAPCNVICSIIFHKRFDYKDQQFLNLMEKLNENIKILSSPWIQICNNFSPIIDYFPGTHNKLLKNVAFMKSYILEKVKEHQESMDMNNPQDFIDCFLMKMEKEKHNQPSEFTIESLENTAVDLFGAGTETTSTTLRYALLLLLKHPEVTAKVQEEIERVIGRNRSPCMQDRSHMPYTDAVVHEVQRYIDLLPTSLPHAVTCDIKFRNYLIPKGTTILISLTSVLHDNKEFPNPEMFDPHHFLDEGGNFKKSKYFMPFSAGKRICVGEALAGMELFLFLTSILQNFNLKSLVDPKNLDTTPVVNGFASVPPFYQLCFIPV

## NS(=O)(=O)CC(=O)NCCSc1nonc1/C(=N/O)Nc1ccc(F)c(C(F)F)c1
[1]
  IC50: 13 nM
[2]
  IC50: 73 nM
UGT1A9
  half-life at 1 µM: > 3 h
[3]
  half-life: 1.07 h
[4]
  half-life: 2.77 h

## NS(=O)(=O)CC(=O)NCCSc1nonc1/C(=N/O)Nc1cccc(Cl)c1
[5]
  Vd: 0.33 L/kg
[1]
  IC50: 10 nM
[6]
  AUC(0-t) at 24 h: 11.9 µM·h
CT26 [7]
  Activity: Active
[2]
  IC50: 21 nM
[8]
  Ratio: > 3
[9]
  Cmax: 5 µM
UGT1A9
  half-life at 1 µM: 0.9 h
CT26 [10]
  Activity: Active
Cytochrome P450 3A4
  IC50: > 10000 nM
[3]
  half-life: 1.26 h
Cytochrome P450 2D6
  IC50: > 10000 nM
CT26 [11]
  Activity: Active
[12]
  fraction unbound: 0.043
[13]
  AUC(0-t) at 24 h: 26 µM·h
[14]
  Ratio: > 2
[15]
  half-life: 1.5 h
Mus musculus
  inhibition: Active
[16]
  bioavailability: 28%
[17]
  fraction unbound: 0.026
[18]
  Cmax: 5.6 µM
[19]
  fraction unbound: 0.046
[4]
  half-life: > 3 h
[20]
  IC50: > 10000 nM
[21]
  half-life: 2.6 h
Cytochrome P450 2C9
  IC50: > 10000 nM
[22]
  IC50: 220 nM
Cytochrome P450 2C19
  IC50: > 10000 nM
[23]
  half-life: 0.562 h
[24]
  clearance: 3.65 mL/min/kg

## CS(=N)(=O)CC(=O)NCCSc1nonc1/C(=N/O)Nc1ccc(F)c(Br)c1 (stereo unspecified)
[1]
  IC50: 14 nM
[2]
  IC50: 61 nM
UGT1A9
  half-life at 1 µM: 1.53 h
[3]
  half-life: 1.25 h
[4]
  half-life: 2.65 h

## CSc1nonc1/C(=N/O)Nc1ccc(F)c(Br)c1
[1]
  IC50: 15 nM
[2]
  IC50: 560 nM

## CC(C)(O)CC(=O)NCCSc1nonc1/C(=N/O)Nc1ccc(F)c(C(F)F)c1
[1]
  IC50: 8.4 nM
[2]
  IC50: 140 nM
UGT1A9
  half-life at 1 µM: > 3 h
[3]
  half-life: 0.175 h
[4]
  half-life: 0.937 h

## NS(=O)(=O)CC(=O)NCCSc1nonc1/C(=N/O)Nc1cccc(C(F)(F)F)c1
[1]
  IC50: 12 nM
[2]
  IC50: 140 nM
UGT1A9
  half-life at 1 µM: > 3 h
[3]
  half-life: 0.44 h
[4]
  half-life: 1.95 h

## NS(=O)(=O)NCCNc1nonc1C(=NO)Nc1ccc(F)c(Br)c1 [EPACADOSTAT]
UGT1A9
  half-life at 1 µM: 0.383 h

## NS(=O)(=O)NCCOc1nonc1/C(=N/O)Nc1ccc(F)c(Br)c1
[1]
  IC50: 12 nM
[2]
  IC50: 150 nM
UGT1A9
  half-life at 1 µM: 0.0483 h

## CC1(C(=O)NCCSc2nonc2/C(=N/O)Nc2ccc(F)c(C(F)F)c2)CCN1 (stereo unspecified)
[1]
  IC50: 16 nM
[2]
  IC50: 360 nM
UGT1A9
  half-life at 1 µM: > 3 h
[3]
  half-life: 0.268 h
[4]
  half-life: 1.97 h

## CS(=O)(=O)CCC(=O)NCCSc1nonc1/C(=N/O)Nc1ccc(F)c(Br)c1
[1]
  IC50: 7.6 nM
[2]
  IC50: 140 nM
UGT1A9
  half-life at 1 µM: 0.858 h
[3]
  half-life: 1.66 h
[4]
  half-life: 2.43 h

## NS(=O)(=O)NCCNc1nonc1/C(=N/OC1OC(C(=O)O)C(O)C(O)C1O)Nc1ccc(F)c(Br)c1 (stereo unspecified)
[25]
  Ratio: 8.1

## NS(=O)(=O)CC(=O)NCCSc1nonc1/C(=N/O)Nc1ccc(F)c(C(F)(F)F)c1
[1]
  IC50: 13 nM
[2]
  IC50: 84 nM
UGT1A9
  half-life at 1 µM: 1.45 h
[3]
  half-life: 0.923 h
[4]
  half-life: 1.88 h

## NS(=O)(=O)NCC(=O)NCCSc1nonc1/C(=N/O)Nc1ccc(F)c(C(F)F)c1
[1]
  IC50: 21 nM
[6]
  AUC(0-t) at 24 h: 30 µM·h
[2]
  IC50: 93 nM
[9]
  Cmax: 3.3 µM
UGT1A9
  half-life at 1 µM: > 3 h
Cytochrome P450 3A4
  IC50: > 10000 nM
[3]
  half-life: 2.75 h
Cytochrome P450 2D6
  IC50: > 10000 nM
[4]
  half-life: > 3 h
[20]
  IC50: > 10000 nM
[21]
  half-life: 3.6 h
Cytochrome P450 2C9
  IC50: > 10000 nM
[22]
  IC50: 320 nM
Cytochrome P450 2C19
  IC50: > 10000 nM
